From patent US9957263B2, “Bromodomain inhibitors” (AbbVie Inc., priority 2013, dated 2018)

Assays:
[1] = system: breast cancer cell line MX-1; assay: MX-1 cell line proliferation assay, Method B; format: cell-based; conditions: Homo sapiens, MX1; MX-1 cells, 384-well, 72 hours, Cell Titer Glo; read-out: Cellular proliferation: EC50 Method B
Procedure: The impact of compounds of the Examples on cancer cell proliferation was determined using the breast cancer cell line MX-1 (ATCC) in a 3-day proliferation assay and the data are reported in Table 1.
Method B: MX-1 cells were maintained in RPMI 1640 medium (Sigma) supplemented with 10% FBS at 37 C.° and an atmosphere of 5% CO2. For compound testing, MX-1 cells were plated in 384-well white with clear, flat bottom plates at a density of 750 cells/well in 25 μL of culture media and incubated at 370 overnight to allow cell adhesion and spreading. Ten point compound dilution series were prepared in DMSO via a 3-fold serial dilution from either […] or 1 μM stock and added directly to the appropriate wells of the MX-1 cell plate by an ECHO liquid handler (Labcyte). The final compound concentrations in the wells were 10, 3.25, 1, 0.25, 0.124, 0.040, 0.0124, 0.0031, 0.0015 and 0.0005 μM or 1, 0.33, 0.1, 0.025, 0.0124, 0.004, 0.0012, 0.0003, 0.00015, 0.00005 μM, depending on the concentration of the compound stock solution.
Luminescence readings from the Cell Titer Glo assay were normalized to the DMSO treated cells and analyzed using Accelrys Assay Explorer 3.3 software with sigmoidal curve fitting to obtain ECsos. The minimum significant ratio (MSR) was determined to evaluate assay reproducibility (Eastwood et al., (2006) J Biomol Screen, 11: 253-261). The overall MSR was determined to be 3.3 and a moving MSR (last six run MSR overtime) has averaged

BRD4 (BDII_E352-M457) = BRD4 (BDII_E352-M457) (Homo sapiens (Human), UniProt O60885); assay: TR-FRET bromodomain binding assay, BRD4 second bromodomain; conditions: His-tagged BD2, Alexa647-labeled probe 30 nM
In short: (§1)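 Read-out: TR-FRET ratio after 1 h at room temperature, normalized to controls and fitted for IC50, then converted to Ki. Reaction held 8 nM His-tagged domain, 1 nM Eu-anti-His antibody, Alexa647 probe (BDI 100 nM; BDII 30 nM) and test compound in 2% DMSO.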

BRD4 (BDI_K57-E168) = BRD4 (BDI_K57-E168) (Homo sapiens (Human), UniProt O60885); assay: TR-FRET bromodomain binding assay, BRD4 first bromodomain; conditions: His-tagged BD1, Alexa647-labeled probe 100 nM
In short: as §1

CCNC(=O)c1cc2c(-c3ccc(C(=O)N(CCC#N)c4cccc(Cl)c4)cc3Oc3c(C)cccc3C)cn(C)c(=O)c2[nH]1 [Example 175, 4-{4-[(3-chlorophenyl)(2-cyanoethyl)carbamoyl]-2-(2,6-dimethylphenoxy)phenyl}-N-ethyl-6-methyl-7-oxo-6,7-dihydro-1H-pyrrolo[2,3-c]pyridine-2-carboxamide]
EC50 [1]: 2410 nM
Ki (BRD4 (BDII_E352-M457)): 17.5 nM
Ki (BRD4 (BDI_K57-E168)): 2230 nM

CCNC(=O)c1cc2c(-c3ccc(C(=O)N(CC#N)c4cccc(Cl)c4)cc3Oc3c(C)cccc3C)cn(C)c(=O)c2[nH]1 [Example 168, 4-{4-[(3-chlorophenyl)(cyanomethyl)carbamoyl]-2-(2,6-dimethylphenoxy)phenyl}-N-ethyl-6-methyl-7-oxo-6,7-dihydro-1H-pyrrolo[2,3-c]pyridine-2-carboxamide]
EC50 [1]: 3060 nM
Ki (BRD4 (BDII_E352-M457)): 22.3 nM
Ki (BRD4 (BDI_K57-E168)): 2310 nM

CCNC(=O)c1cc2c(-c3ccc(C(=O)N(CCN(CC)CC)c4ccccc4)cc3Oc3c(C)cccc3C)cn(C)c(=O)c2[nH]1 [Example 182, 4-[4-{[2-(diethylamino)ethyl](phenyl)carbamoyl}-2-(2,6-dimethylphenoxy)phenyl]-N-ethyl-6-methyl-7-oxo-6,7-dihydro-1H-pyrrolo[2,3-c]pyridine-2-carboxamide]
EC50 [1]: 2120 nM
Ki (BRD4 (BDII_E352-M457)): 6.06 nM
Ki (BRD4 (BDI_K57-E168)): 921 nM

CCNC(=O)c1cc2c(-c3cc(S(=O)(=O)CC)ccc3Oc3c(C)cccc3CCC3CCCC3)cn(C)c(=O)c2[nH]1 [Example 164, 4-{2-[2-(2-cyclopentylethyl)-6-methylphenoxy]-5-(ethylsulfonyl)phenyl}-N-ethyl-6-methyl-7-oxo-6,7-dihydro-1H-pyrrolo[2,3-c]pyridine-2-carboxamide]
EC50 [1]: 10000 nM
Ki (BRD4 (BDII_E352-M457)): 15.1 nM

Cn1cc(-c2cc(S(C)(=O)=O)ccc2Oc2cccc(C(=O)NCCN3CCCC3)c2)c2cc[nH]c2c1=O [Example 35, 3-[2-(6-methyl-7-oxo-6,7-dihydro-1H-pyrrolo[2,3-c]pyridin-4-yl)-4-(methylsulfonyl)phenoxy]-N-[2-(pyrrolidin-1-yl)ethyl]benzamide]
Ki (BRD4 (BDII_E352-M457)): 1.9 nM
Ki (BRD4 (BDI_K57-E168)): 3.1 nM

Cn1cc(-c2cc(S(C)(=O)=O)ccc2Oc2cccc(NS(=O)(=O)c3cccc(OC(F)F)c3)c2)c2cc[nH]c2c1=O [Example 48, 3-(difluoromethoxy)-N-{3-[2-(6-methyl-7-oxo-6,7-dihydro-1H-pyrrolo[2,3-c]pyridin-4-yl)-4-(methylsulfonyl)phenoxy]phenyl}benzenesulfonamide]
Ki (BRD4 (BDII_E352-M457)): 2.4 nM
Ki (BRD4 (BDI_K57-E168)): 7.8 nM

Cn1cc(-c2cc(S(C)(=O)=O)ccc2Oc2ccc(F)cc2F)c2cc(CNCCC(N)=O)[nH]c2c1=O [Example 159, 3-[({4-[2-(2,4-difluorophenoxy)-5-(methylsulfonyl)phenyl]-6-methyl-7-oxo-6,7-dihydro-1H-pyrrolo[2,3-c]pyridin-2-yl}methyl)amino]propanamide]
Ki (BRD4 (BDII_E352-M457)): 156 nM
Ki (BRD4 (BDI_K57-E168)): 230 nM

CCNC(=O)/C=C/c1cc2c(-c3cc(S(=O)(=O)CC)ccc3Oc3c(C)cccc3C)cn(C)c(=O)c2[nH]1 [Example 134, (2E)-3-{4-[2-(2,6-dimethylphenoxy)-5-(ethylsulfonyl)phenyl]-6-methyl-7-oxo-6,7-dihydro-1H-pyrrolo[2,3-c]pyridin-2-yl}-N-ethylprop-2-enamide]
Ki (BRD4 (BDII_E352-M457)): 1.62 nM
Ki (BRD4 (BDI_K57-E168)): 23.4 nM

COCC(=O)N1CCC(Nc2ccc(S(C)(=O)=O)cc2-c2cn(C)c(=O)c3[nH]ccc23)CC1 [Example 95, 4-[2-{[1-(methoxyacetyl)piperidin-4-yl]amino}-5-(methylsulfonyl)phenyl]-6-methyl-1,6-dihydro-7H-pyrrolo[2,3-c]pyridin-7-one]
Ki (BRD4 (BDII_E352-M457)): 16 nM
Ki (BRD4 (BDI_K57-E168)): 22 nM

Cn1cc(-c2cc(S(C)(=O)=O)ccc2Oc2cccc(NS(=O)(=O)c3cccc(C#N)c3)c2)c2cc[nH]c2c1=O [Example 57, 3-cyano-N-{3-[2-(6-methyl-7-oxo-6,7-dihydro-1H-pyrrolo[2,3-c]pyridin-4-yl)-4-(methylsulfonyl)phenoxy]phenyl}benzenesulfonamide]
Ki (BRD4 (BDII_E352-M457)): 2.2 nM
Ki (BRD4 (BDI_K57-E168)): 5.3 nM
